Measured values taken from PubChem BioAssay (NCI).
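Where inhibition never reached the appropriate level, the endpoint shown equals the highest concentration tested. Otherwise, values were interpolated linearly from a five-concentration, 48-hour dose response in 96-well plates. The concentration for full growth arrest is given as TGI.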

Tests used:
Test in all cases: DTP human tumour cell line panel, 48 h
NCI/ADR-RES ovarian = test system: NCI/ADR-RES ovarian
A498 renal = test system: A498 renal
MALME-3M melanoma = test system: MALME-3M melanoma
LOX IMVI melanoma = test system: LOX IMVI melanoma
HT29 colon = test system: HT29 colon
SW-620 colon = test system: SW-620 colon
SN12C renal = test system: SN12C renal
786-0 renal = test system: 786-0 renal
ACHN renal = test system: ACHN renal
SF-539 CNS = test system: SF-539 CNS

Row | Structure (SMILES) | TGI (NCI/ADR-RES ovarian) [µM] | TGI (A498 renal) [µM] | TGI (MALME-3M melanoma) [µM] | TGI (LOX IMVI melanoma) [µM] | TGI (HT29 colon) [µM] | TGI (SW-620 colon) [µM] | TGI (SN12C renal) [µM] | TGI (786-0 renal) [µM] | TGI (ACHN renal) [µM] | TGI (SF-539 CNS) [µM]
1 | O=C(Nc1ccccn1)c1cc2c(cc1Cl)Sc1nccn1S2(=O)=O | 85.6 | > 100 | > 100 | > 100 | > 100 | > 100 | > 100 | > 100 | > 100 | 
2 | COc1ccc(-c2cc(-c3ccncc3)nc(N)c2-c2ccc(F)cc2)cc1 | > 100 | > 100 | > 100 | > 100 | > 100 | > 100 |  | > 100 | 75.4 | 46.8
3 | COc1ccc(/C=C/C(=O)N[C@@H]2C(=O)N3[C@@H]2SC(C)(C)[C@@H]3C(=O)O)cc1OC | > 100 | > 100 |  | > 100 | > 100 | > 100 | > 100 | > 100 | > 100 | > 100
4 | COC(=O)CCC(=O)c1ccc2c(c1)CC1(Cc3ccccc3C1)C2 | > 100 | > 100 | > 100 | > 100 | 43.9 |  | > 100 | > 100 | > 100 | > 100
5 | O=Cc1ccc(Oc2c3ccccc3nc3ccccc23)cc1 | > 100 | 14.5 | 30 | 11.7 | 4.38 |  | 11.1 | 6.16 | 14 | 4.12
6 | C[C@@H](Br)[C@@H]1CC[C@H]2c3[nH]c4ccccc4c3CCN2C1 | 47.3 | > 100 | 40.3 | 32.9 | 67.8 | 70.8 |  | 36.6 | > 100 | 
7 | Cc1cccc2c1CC1(Cc3c(C)cccc3C1=O)C2=O | > 100 | > 100 | > 100 | > 100 | > 100 | > 100 |  | > 100 | > 100 | > 100
8 | Cc1csc(CP(=O)(OC(C)C)OC(C)C)n1 | > 100 | > 100 | > 100 | > 100 | > 100 | > 100 | > 100 | > 100 | > 100 | > 100
9 | O=c1n(CC2CO2)c2ccccc2n1CC1CS1 (centres undefined) |  |  | > 100 | > 100 |  | > 100 | > 100 |  | > 100 | > 100
10 | O=[N+]([O-])c1cnccc1-n1nnc2ccccc21 | 63.4 | 92.1 | 45.5 | 32.8 | > 100 | 52 | 37.7 |  |  | 45.8
11 | CSc1nc(NC2OC(CO)C(O)C(O)C2O)c(N)c(=O)[nH]1 (centres undefined) | > 100 | > 100 | > 100 | > 100 | > 100 | > 100 | > 100 |  |  | > 100
12 | FC(F)(F)c1ccc(N=NN2CCCC2)cc1 |  | > 100 | > 100 | > 100 | > 100 | > 100 | > 100 | > 100 | > 100 | > 100
13 | COC1=C2C[C@](OC)(C#CC=CC#CC2O)CC1(C)C (some centres undefined) | > 100 |  | > 100 | > 100 | > 100 | > 100 | > 100 | > 100 | > 100 | > 100
14 | O=c1oc2ccc([N+](=O)[O-])cc2cc1-c1csc(-c2ccccc2)n1 | > 100 |  | > 100 | > 100 | > 100 | > 100 | > 100 | > 100 | > 100 | > 100
15 | COc1cc(CNC(=O)CCCCCCCCCCSC#N)ccc1O | 59.7 | 30.3 | > 100 | 33 | 87.2 | 36.4 |  | 41.5 |  | 37.1
16 | COC(=O)C(Cc1cc(OC)c(OC)c(OC)c1)(NC(=O)c1ccccc1)P(=O)(OC)OC (centres undefined) |  | > 100 |  | > 100 | > 100 | > 100 | > 100 |  | > 100 | > 100
17 | CC(=O)Nc1ccc(C(=O)NN2C(=O)C(Cl)C2/C=C/c2ccccc2)cc1 (centres undefined) |  |  | > 100 |  | > 100 | > 100 |  |  | > 100 | > 100
18 | ClC1(Cl)C2CCOC21n1cnc2ccccc21 (centres undefined) | > 100 |  | > 100 | > 100 | > 100 | > 100 | > 100 | > 100 |  | > 100
19 | CC(=O)Nc1ccc2cc3c(nc2n1)c1cccnc1n3S(=O)(=O)c1ccccc1 | > 100 | > 100 | > 100 | > 100 | > 100 | > 100 | > 100 | > 100 | > 100 | 
20 | COC(=O)CC(c1ccccc1)C(C#N)(OP1(=O)OC(c2ccccc2)C(C)N1C)c1ccccc1 (centres undefined) | > 100 | > 100 | > 100 | > 100 | > 100 | > 100 | > 100 | > 100 | > 100 | 
21 | CC(C)[Si](CC1=CCCCC12C(=O)N(COCC[Si](C)(C)C)c1ccccc12)(C(C)C)C(C)C (centres undefined) | > 100 | > 100 | > 100 | > 100 | > 100 | > 100 |  | > 100 | > 100 | > 100
22 | C=C(C)[C@H]1C=C[C@@H](OC(C)=O)[C@@]2(COC(C)=O)[C@H](OC(=O)CCC)[C@H]3[C@@H](OC(C)=O)[C@@H](C)C[C@]3(O)C(=O)[C@@](C)(OC(C)=O)[C@H]12 | > 100 | > 100 | > 100 | > 100 | > 100 | > 100 | > 100 | > 100 | > 100 | 
23 | COc1ccc(/C=C2\NC(=S)N(CN3CCOCC3)C2=O)cc1 | > 100 | > 100 | > 100 | > 100 | > 100 | > 100 | > 100 | > 100 | > 100 | 
